Values joined by “and” are separate entries in the source; they are usually repeats but may differ in a detail not shown here. Equal values may be shown once. Read-outs that look alike come from different tables or passages of the source.
Legend:
[1] = system: procaine induced convulsion; settings: diazepam 0.3 mg/kg intravenous; procaine 100-150 mg/kg intraperitoneally; animal model; cited from earlier work
[2] = cited from earlier work
plasma esterase = plasma esterase (Homo sapiens, UniProt P06276); settings: cited from earlier work
Chain of plasma esterase (P06276 29-602): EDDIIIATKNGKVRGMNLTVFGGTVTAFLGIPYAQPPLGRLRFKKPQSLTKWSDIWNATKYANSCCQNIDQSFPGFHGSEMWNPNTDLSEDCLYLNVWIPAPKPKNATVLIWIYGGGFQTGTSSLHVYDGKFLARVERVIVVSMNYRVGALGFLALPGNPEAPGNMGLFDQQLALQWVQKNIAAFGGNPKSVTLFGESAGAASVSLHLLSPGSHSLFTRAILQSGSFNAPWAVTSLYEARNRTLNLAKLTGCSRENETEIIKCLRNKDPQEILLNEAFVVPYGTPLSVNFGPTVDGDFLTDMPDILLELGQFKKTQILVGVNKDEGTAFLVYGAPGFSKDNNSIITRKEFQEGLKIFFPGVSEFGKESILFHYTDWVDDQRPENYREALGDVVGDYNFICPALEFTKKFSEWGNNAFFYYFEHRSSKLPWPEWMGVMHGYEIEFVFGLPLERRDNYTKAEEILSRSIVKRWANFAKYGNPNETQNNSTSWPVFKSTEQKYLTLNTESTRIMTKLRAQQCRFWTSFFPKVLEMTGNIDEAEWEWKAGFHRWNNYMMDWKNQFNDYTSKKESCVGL

[3] = system: central pore of sodium channels; settings: cited from earlier work
[4] = in vivo, iv; cited from earlier work
[5] = system: patients with acute or chronic pain; settings: cited from earlier work
[6] = Pharmacokinetics of intravenous procaine; assay type: in vivo; settings: 95 mg bolus IV, 70 kg human, calculated
Description: In a 70 kg human, with an average central compartment procaine blood volume of distribution of 0.57 L/kg procaine or 40.0. L, an initial blood level of 2.36 μg/ml is obtained with a 95 mg bolus IV procaine administration.[16]

[7] = in vivo, po; cited from earlier work
[8] = Ion trapping effects of charged and uncharged procaine (pH=pKa+log B/BH+)
From the text: As the molecule transits from the blood to neural cytoplasm, procaine becomes more charged and less lipophilic within the cytoplasm of the neuron, and the concentration of the active charge species increases. The charged active species is essentially trapped in the cytoplasm, only being able to exit after hydrolysis to PABA and DEAE or through distribution.
The intraneural pH of human dorsal root ganglia is not known, but it is generally accepted that intraneural pH decreases with neural activity. The pH of cervical ganglia of a rodent is reported as 7.30-6.51, and the typical resting or “steady-state” pH within a hippocampal neuron is reported as ˜7.03-7.46,[30]

[9] = system: dorsal root ganglia neurons; settings: neurons with an abundance of Nav 1.8 channels; cited from earlier work
[10] = system: patients with chronic pain; settings: cited from earlier work

CN1C(=O)CN=C(c2ccccc2)c2cc(Cl)ccc21 [diazepam]
Effect on procaine induced convulsion [1]: aborted procaine induced convulsion

CCN(CC)CCO [DEAE, diethylaminoethanol]
pKa [2]: ~10.1

CCN(CC)CCOC(=O)c1ccc(N)cc1Cl [2-chloroprocaine]
Rate of hydrolysis by plasma esterase relative to procaine (plasma esterase): 4 ×

Cc1cccc(C)c1NC(=O)CN [GX, glycinexylidide]
Potency relative to the parent drug lidocaine [3]: nearly ineffective

Nc1ccc(C(=O)O)cc1 [PABA, para-aminobenzoic acid]
pKa [2]: ~4.6

CCNCC(=O)Nc1c(C)cccc1C [MEGX, monoethylglycinexylidide]
Potency relative to the parent drug lidocaine [3]: 80%

CCN(CC)CCOC(=O)c1ccc(N)cc1 [procaine]
Blood level considered therapeutic [4]: 10000 ng/mL
Relief of pain and discomfort ([5]; Betcher, IV, 92 patients, various orthopedic conditions): adequate relief
Analgesia ([5]; Kahl, IV infusion 2000 mg over 24 hours, acute pancreatic pain): poor analgesia
Analgesia ([5]; Keats, IV, approximate dose 370 mg, 53 patients, acute post-operative pain): inadequate analgesia
Chronic pain relief (patients) ([5]; Shanbrom, 500 mg to 1000 mg IV, postherpetic neuralgia): 13/16
Relief of acute pain ([5]; Zeluff, IV 1000 mg, 3 patients, traumatic military injuries): dramatic relief
Initial blood level [6]: 2.36 µg/mL
Peak plasma procaine levels [7]: 0.2-3.1 mg percent
[BH+]/[B] ([8]; Blood, pH 7.4): 32
[BH+]/[B] ([8]; CSF, pH 7.32): 38
[BH+]/[B] ([8]; Ganglia or intraneural, pH 7.30-6.51): 40-245
[BH+]/[B] ([8]; Interstitial, pH 7.4): 32
Predicted intraneural [BH+] relative to blood [BH+] ([8]; ion trapping and diminished CSF pseudocholinesterase activity, without Michaelis-Menten kinetics): ≤ 750 times
Factor of increase of [BH+]/[B] from blood to intraneural cytoplasm ([8]; ion trapping only): at least 7.5
Minimum concentration for block of dorsal root ganglia neurons [9]: 10 µM
Efficacy (patients successfully treated) ([10]; Balfour 1951, oral 80 mg with Metamucil, chronic dysphagia): 8
Efficacy (patients with relief / patients treated) ([10]; Beinhauer 1954, oral 3000 mg/day, herpes zoster or burning tongue syndrome): 9/14
Efficacy (patients with analgesia / patients treated) ([10]; Klein 1953, oral 450 mg TID, chronic pain from arthritis): 38/50
Efficacy (patients with analgesia / patients treated) ([10]; Koch 1989, oral 200 mg BID, procaine double salt complex, chronic pain from rheumatoid arthritis): 29/30
Efficacy (patients with analgesia / patients treated) ([10]; Kupperman 1957, oral 1000 mg TID with meals, arthritis): no analgesia and 0/50
Efficacy (patients with chronic pain relief / patients treated) ([10]; Traut 1952, oral 3000 mg/day in divided doses after meals, arthritis): 5/32

Reference: patent publication US20240130998A1, “ANALGESIA FROM ORAL PROCAINE A FORGOTTEN VOLTAGE GATED SODIUM CHANNEL BLOCKER” (priority 2023, published 2024)
